Test results taken from patent US9376436B2, “2-(pyridin-2yl)-1, 7-diaza-spiro [4.4] nonane-6-one compound as voltage-gated sodium channels modulators” (CONVERGENCE PHARMACEUTICALS LIMITED, priority 2011, dated 2016).
Structures can show the parent of a compound that is named as a salt. Where two headings read alike, the source gives them in different places.

Molecular target: T1, hNaV1.7 (Homo sapiens, UniProt Q15858)
T1 construct: expressed in transfected cells; host or cells: HEK293
Test: QPatch NaV1.7 assay (whole-cell patch clamp, QPatch16x)
Format: cell-based
Details: HEK293-hNaV1.7 cells
Experimental: The compounds of the invention were tested in a QPatch NaV1.7 assay.
HEK293-hNaV1.7 cells were grown in DMEM-F12+10% FBS culture media at 37° C. At a confluency of 50-70% cells were dissociated from culture flasks & triturated to ensure unicellular cell suspension; cell density was measured & adjusted to 2-3×10^6 cells/ml. Recordings were obtained using QPatch16x. The external solution was (in mM): NaCl, 128; KCl, 5; MgCl2, 2; CaCl2, 2; Glucose, 30; HEPES, 15; pH 7.3, 305-315 mOsm. Following seal formation and whole-cell access using internal solution (containing in mM: CsF, 135; EGTA/CsOH, 1/5; HEPES 10; NaCl, 10; pH 7.3, 310-320 mOsM), voltage pulse protocols were applied. Initially a steady state inactivation voltage protocol was used to determine the half-maximal voltage for steady state inactivation (V1/2 SSI). Two holding voltages were used to determine test drug inhibition: −90 mV, where most of the channels are in a closed state; and V1/2 SSI, where half of the channels are inactivated. Currents were elicited […] by stepping to a membrane potential of 0 mV for 20 ms. Four-point cumulative concentration responses were derived by determining the peak current amplitude at each concentration of test drug over 120 second application. Curves were fitted with the Hill equation yielding pIC50 values at −90 mV and V1/2 SSI holding potentials.

[1] = holding voltage V1/2 SSI (half of channels inactivated), read-out: QP Nav1.7 SSI vhalf pIC50 (converted)
[2] = holding voltage −90 mV (most channels closed), read-out: QP Nav1.7 −90 mV pIC50 (converted)

T1 sequence (Q15858 whole entry): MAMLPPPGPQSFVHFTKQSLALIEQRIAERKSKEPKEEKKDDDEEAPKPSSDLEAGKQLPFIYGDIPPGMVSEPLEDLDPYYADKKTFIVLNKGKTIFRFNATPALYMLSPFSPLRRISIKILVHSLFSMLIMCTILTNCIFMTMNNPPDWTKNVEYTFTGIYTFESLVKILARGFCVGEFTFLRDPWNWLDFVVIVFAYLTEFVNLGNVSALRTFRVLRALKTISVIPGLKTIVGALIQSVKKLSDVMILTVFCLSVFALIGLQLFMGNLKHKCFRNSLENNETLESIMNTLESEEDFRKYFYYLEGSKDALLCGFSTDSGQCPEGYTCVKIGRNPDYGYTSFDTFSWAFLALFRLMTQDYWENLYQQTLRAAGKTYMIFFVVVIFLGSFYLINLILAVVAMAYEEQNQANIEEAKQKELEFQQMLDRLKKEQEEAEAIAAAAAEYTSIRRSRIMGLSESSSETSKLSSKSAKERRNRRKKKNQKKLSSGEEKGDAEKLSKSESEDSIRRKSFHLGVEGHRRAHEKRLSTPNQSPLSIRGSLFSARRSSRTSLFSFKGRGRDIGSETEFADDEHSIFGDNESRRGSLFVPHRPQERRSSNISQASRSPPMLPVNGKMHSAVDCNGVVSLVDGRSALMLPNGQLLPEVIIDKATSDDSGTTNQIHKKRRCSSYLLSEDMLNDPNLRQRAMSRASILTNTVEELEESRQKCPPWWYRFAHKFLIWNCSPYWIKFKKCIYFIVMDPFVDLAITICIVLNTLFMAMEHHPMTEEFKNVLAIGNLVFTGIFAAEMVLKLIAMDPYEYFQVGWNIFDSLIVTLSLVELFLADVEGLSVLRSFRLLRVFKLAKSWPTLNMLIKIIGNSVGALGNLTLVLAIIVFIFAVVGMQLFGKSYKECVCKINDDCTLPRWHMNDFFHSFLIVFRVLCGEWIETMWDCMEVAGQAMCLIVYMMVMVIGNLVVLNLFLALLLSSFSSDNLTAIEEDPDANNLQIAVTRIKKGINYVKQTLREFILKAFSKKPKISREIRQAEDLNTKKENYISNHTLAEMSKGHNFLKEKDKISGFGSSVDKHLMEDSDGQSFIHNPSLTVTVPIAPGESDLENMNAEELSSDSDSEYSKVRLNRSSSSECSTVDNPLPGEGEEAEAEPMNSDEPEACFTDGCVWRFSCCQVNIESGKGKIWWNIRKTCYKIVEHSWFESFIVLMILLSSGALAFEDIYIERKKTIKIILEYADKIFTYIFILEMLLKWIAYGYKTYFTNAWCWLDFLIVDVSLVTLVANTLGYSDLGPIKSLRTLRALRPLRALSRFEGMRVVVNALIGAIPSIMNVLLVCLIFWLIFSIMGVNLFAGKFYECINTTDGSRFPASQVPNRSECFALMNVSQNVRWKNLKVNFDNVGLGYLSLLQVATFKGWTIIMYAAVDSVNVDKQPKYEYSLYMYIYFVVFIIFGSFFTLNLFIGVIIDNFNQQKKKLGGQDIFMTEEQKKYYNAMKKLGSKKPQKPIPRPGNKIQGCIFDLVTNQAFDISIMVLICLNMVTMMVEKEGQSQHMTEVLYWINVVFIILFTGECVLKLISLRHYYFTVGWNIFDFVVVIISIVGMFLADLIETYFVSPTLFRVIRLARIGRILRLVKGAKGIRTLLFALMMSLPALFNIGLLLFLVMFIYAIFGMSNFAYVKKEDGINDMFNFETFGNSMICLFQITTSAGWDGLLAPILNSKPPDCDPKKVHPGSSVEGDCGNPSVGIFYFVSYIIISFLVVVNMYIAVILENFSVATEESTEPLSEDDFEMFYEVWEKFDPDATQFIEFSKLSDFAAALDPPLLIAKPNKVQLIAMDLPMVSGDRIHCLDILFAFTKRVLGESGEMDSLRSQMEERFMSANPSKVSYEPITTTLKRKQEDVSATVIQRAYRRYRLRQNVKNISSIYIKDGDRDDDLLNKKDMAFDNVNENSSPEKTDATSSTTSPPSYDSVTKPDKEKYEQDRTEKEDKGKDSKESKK

Row | IC50 [1] [µM] | IC50 [2] [µM] | QP Nav1.7 SSI vhalf pIC50 (holding voltage V1/2 SSI (half of channels inactivated)) | SMILES
1 | 1.58 | 31.6 |  | CN1CC[C@@]2(CC(F)(F)C(c3cc(-c4ccc(C(F)(F)F)cc4)ccn3)N2)C1=O (mixture of isomers) [Example 240, (5R)-3,3-Difluoro-7-methyl-2-[4-[4-(trifluoromethyl)phenyl]-2-pyridyl]-1,7-diazaspiro[4.4]nonan-6-one hydrochloride]
2 | 2.51 | 20 |  | CCOc1ccc(F)c(-c2cc(C)nc(C3CCC4(CCN(C)C4=O)N3)c2C)c1 (mixture of isomers) [Example 256, 2-[4-(5-Ethoxy-2-fluoro-phenyl)-3,6-dimethyl-2-pyridyl]-7-methyl-1,7-diazaspiro[4.4]nonan-6-one hydrochloride]
3 | 2 | 50.1 |  | CN1CC[C@@]2(CC(F)C(c3cc(-c4ccc(C(F)(F)F)cc4)ccn3)N2)C1=O (single isomer, unassigned) [Example 238, hydrochloride]
4 | 15.8 | 251 |  | CN1CC[C@@]2(CC(F)C(c3cc(-c4ccc(C(F)(F)F)cc4)ccn3)N2)C1=O (single isomer, unassigned) [Example 239]
5 | 1.26 | 20 |  | CCOc1ccc(F)c(-c2cc(OC)nc([C@H]3CC[C@]4(CCN(C)C4=O)N3)c2)c1 (single isomer, unassigned) [Example 247, hydrochloride]
6 | 5.01 | 31.6 |  | CCOc1ccc(F)c(-c2cc(OC)nc([C@@H]3CC[C@]4(CCN(C)C4=O)N3)c2)c1 (single isomer, unassigned) [Example 248]
7 |  |  | 5.5 | CN1CC[C@@]2(CC[C@H](c3cc(-c4cccc(OC(F)(F)F)c4)ccn3)N2)C1=O.Cl [Example 1, (2R,5S)-7-Methyl-2-[4-[3-(trifluoromethoxy)phenyl]-2-pyridyl]-1,7-diazaspiro[4.4]nonan-6-one hydrochloride]
8 | 20 | 200 |  | Cc1cc(C)c(-c2ccnc([C@H]3CC[C@@]4(CCN(C)C4=O)N3)c2)c(C)c1 [Example 2, (2R,5S)-7-Methyl-2-[4-(2,4,6-trimethylphenyl)-2-pyridyl]-1,7-diazaspiro-[4.4]nonan-6-one hydrochloride]
9 | 7.94 | 63.1 |  | CN1CC[C@@]2(CC[C@H](c3cc(-c4ccccc4OC(F)(F)F)ccn3)N2)C1=O [Example 3, (2R,5S)-7-Methyl-2-[4-[2-(trifluoromethoxy)-phenyl]-2-pyridyl]-1,7-diazaspiro-[4.4]nonan-6-one hydrochloride]
10 | 12.6 | 200 |  | CCOc1ccc(F)cc1-c1ccnc([C@H]2CC[C@@]3(CCN(C)C3=O)N2)c1 [Example 4, (2R,5S)-2-[4-(2-Ethoxy-5-fluoro-phenyl)-pyridin-2-yl]-7-methyl-1,7-diaza-spiro[4.4]nonan-6-one hydrochloride]
11 | 3.98 | 25.1 |  | CN1CC[C@@]2(CC[C@H](c3cc(-c4ccc(OC(F)(F)F)cc4)ccn3)N2)C1=O [Example 5, (2R,5S)-7-Methyl-2-[4-(4-trifluoro-methoxy-phenyl)-pyridin-2-yl]-1,7-diaza-spiro[4.4]nonan-6-one hydrochloride]
12 | 31.6 | 158 |  | CN1CC[C@@]2(CC[C@H](c3cc(-c4ccccc4)ccn3)N2)C1=O [Example 6, (2R,5S)-7-Methyl-2-(4-phenyl-pyridin-2-yl)-1,7-diaza-spiro[4.4]nonan-6-one hydrochloride]
13 | 31.6 | 100 |  | CN1CC[C@@]2(CC[C@H](c3cc(-c4ccccc4C(F)(F)F)ccn3)N2)C1=O [Example 7, (2R,5S)-7-Methyl-2-[4-[2-(trifluoro-methyl)phenyl]-2-pyridyl]-1,7-diazaspiro[4.4]nonan-6-one hydrochloride]
14 | 0.794 | 10 |  | CCOc1ccc(F)c(-c2ccnc([C@H]3CC[C@@]4(CCN(C)C4=O)N3)c2)c1 [Example 8, (2R,5S)-2-[4-(5-Ethoxy-2-fluoro-phenyl)-2-pyridyl]-7-methyl-1,7-diazaspiro[4.4]nonan-6-one hydrochloride]
15 | 63.1 | 1000 |  | CN1CC[C@@]2(CC[C@H](c3cc(-c4ccc(F)cc4F)ccn3)N2)C1=O [Example 9, (2R,5S)-2-[4-(2,4-Difluorophenyl)-2-pyridyl]-7-methyl-1,7-diazaspiro[4.4]nonan-6-one hydrochloride]
16 | 50.1 | 3980 |  | COc1ccc(F)cc1-c1ccnc([C@H]2CC[C@@]3(CCN(C)C3=O)N2)c1 [Example 10, (2R,5S)-2-[4-(5-Fluoro-2-methoxy-phenyl)-2-pyridyl]-7-methyl-1,7-diazaspiro[4.4]nonan-6-one hydrochloride]
17 | 25.1 | 200 |  | CN1CC[C@@]2(CC[C@H](c3cc(-c4ccc(F)c(F)c4)ccn3)N2)C1=O [Example 11, (2R,5S)-2-[4-(3,4-Difluorophenyl)-2-pyridyl]-7-methyl-1,7-diazaspiro[4.4]nonan-6-one hydrochloride]
18 | 10 | 50.1 |  | CN1CC[C@@]2(CC[C@H](c3cc(-c4ccc(C(F)(F)F)cc4F)ccn3)N2)C1=O [Example 12, (2R,5S)-2-[4-[2-Fluoro-4-(trifluoromethyl)phenyl]-2-pyridyl]-7-methyl-1,7-diazaspiro[4.4]nonan-6-one hydrochloride]
19 | 6.31 | 25.1 |  | CN1CC[C@@]2(CC[C@H](c3cc(-c4ccc(Cl)cc4)ccn3)N2)C1=O [Example 13, (2R,5S)-2-[4-(4-Chlorophenyl)-2-pyridyl]-7-methyl-1,7-diazaspiro[4.4]nonan-6-one hydrochloride]
20 | 10 | 63.1 |  | Cc1c(-c2ccc(C(F)(F)F)cc2)ccnc1[C@H]1CC[C@]2(CCN(C)C2=O)N1 [Example 14, (2R,5R)-7-Methyl-2-[3-methyl-4-[4-(trifluoromethyl)phenyl]-2-pyridyl]-1,7-diazaspiro[4.4]nonan-6-one hydrochloride]
21 | 6.31 | 25.1 |  | Cc1c(-c2ccc(C(F)(F)F)cc2)ccnc1[C@@H]1CC[C@]2(CCN(C)C2=O)N1 [Example 15, (2S,5R)-7-Methyl-2-[3-methyl-4-[4-(trifluoromethyl)phenyl]-2-pyridyl]-1,7-diazaspiro[4.4]nonan-6-one hydrochloride]
22 | 12.6 | 100 |  | Cc1c(-c2ccc(C(F)(F)F)cc2)ccnc1[C@@H]1CC[C@@]2(CCN(C)C2=O)N1 [Example 16, (2S,5S)-7-Methyl-2-[3-methyl-4-[4-(trifluoromethyl)phenyl]-2-pyridyl]-1,7-diazaspiro[4.4]nonan-6-one hydrochloride]
23 | 3.16 | 20 |  | Cc1c(-c2ccc(C(F)(F)F)cc2)ccnc1[C@H]1CC[C@@]2(CCN(C)C2=O)N1 [Example 17, (2R,5S)-7-Methyl-2-[3-methyl-4-[4-(trifluoromethyl)phenyl]-2-pyridyl]-1,7-diazaspiro[4.4]nonan-6-one hydrochloride]
24 | 31.6 | 794 |  | Cc1c(-c2ccc(F)cc2)ccnc1[C@@H]1CC[C@]2(CCN(C)C2=O)N1 [Example 18, (2S,5R)-7-Methyl-2-[3-methyl-4-[4-fluorophenyl]-2-pyridyl]-1,7-diazaspiro[4.4]nonan-6-one hydrochloride]
